Measurements reported in US10457710B2, “Antimicrobial peptides, their variants and uses” (priority 2015, dated 2019).
Where a SMILES comes first, the peptide text is derived from it. [ ]: non-standard residue; d: D form.

Key:
Assay type in all cases: cell-based
[1] = system: Candida albicans; test: MIC, clinical yeast strains
Method: (§1) Minimum inhibition concetrations (MICs) were determined against Escherichia coli (ATCC 25922), Staphylococcus aureus (ATCC 25923), Klebsiella pneumoniae (ATCC 10031) and Pseudomonas aeruginosa (ATCC 27853). Also clinical strains of E. coli, K. pneumoniae, E. cloacae, P. aeruginosa, Serratia marcescens, Proteus mirabilis, S. pneumoniae, Acinetobacter baumannii, A. johnsonii and S. aureus were used for MICs assays. Additionally, clinical strains of yeast including Candida albicans, C. glabrata, C. parapsilosis and C. quillermondiae were used. The susceptibility of these microorganisms to Chain peptides were determined using micro broth dilution assay. Colonies of the respective microorganism from Muller Hinton (MH) agar plates incubated overnight were suspended in MH broth media and final concentration of microorganism was adjusted to 5.0×10^5 cfu/ml. An aliquot of 10 μl of each Chain peptide, or gentamicin, tetracycline as reference antibiotics were added in differing concentrations along with 90 μl of bacterial suspension to 96 well polypropylene plates and incubated at 37° C. for 20 to 24 hours. Concentrations of Chain peptides and reference antibiotics ranged from 0.125 to 128 μg/ml and the MICs were recorded as the lowest concentration with no visual growth of bacteria. Similarly, antifungal MICs were tested in Potato dextrose broth.
(§2) Clinical strains of yeasts including Candida albicans, C. glabrata, C. parapsilosis and C. quillermondiae were also tested with the 12 Chain peptides. The minimum inhibitory concentration (MICs) varied between these peptides and are presented in Tables 4a, 4b, 4c and 5a, 5b, 5c. Peptides Chain 105, 201 and 308 are broad spectrum antimicrobials with MICs between 0.5-32 μg/ml against all the bacteria and yeasts tested, except Serratia marcescens and Proteus mirabilis, against which the MICs were between 64-128 μg/ml. Peptide Chain 306 has narrow spectrum activity against E. coli at 1 μg/ml and for the rest of the bacterial strains at >32 μg/ml (FIG. 10c).

[2] = system: C. glabrata; test: MIC, clinical yeast strains
Method: as §1, §2

[3] = system: C. parapsilosis; test: MIC, clinical yeast strains
Method: as §1, §2

[4] = system: C. quillermondiae; test: MIC, clinical yeast strains; set-up: Minimum inhibitory concentration: unit: μg/ml; details: C. quillermondiae clinical yeast strain 1
Method: as §1, §2

[5] = system: clinical strains of Serratia marcescens; test: MIC, microdilution, clinical strains; details: 0.02% BSA, 0.2% acetic acid
Method: as §1, §2

[6] = system: clinical strains of S. aureus; test: MIC, microdilution, clinical strains; details: 0.02% BSA, 0.2% acetic acid
Method: as §1, §2

[7] = system: clinical strains of Proteus mirabilis; test: MIC, microdilution, clinical strains; details: 0.02% BSA, 0.2% acetic acid
Method: as §1, §2

[8] = system: clinical strains of E. coli; test: MIC, microdilution, clinical strains; details: microdilution, Muller Hinton broth-cation adjusted, 0.02% BSA, 0.2% acetic acid
Method: as §1, §2

[9] = system: clinical strains of K. pneumoniae; test: MIC, microdilution, clinical strains; details: 0.02% BSA, 0.2% acetic acid
Method: as §1, §2

[10] = system: clinical strains of S. pneumoniae; test: MIC, microdilution, clinical strains; details: 0.02% BSA, 0.2% acetic acid
Method: as §1, §2

[11] = system: clinical strains of E. cloacae; test: MIC, microdilution, clinical strains; details: 0.02% BSA, 0.2% acetic acid
Method: as §1, §2

[12] = system: clinical strains of P. aeruginosa; test: MIC, microdilution, clinical strains; details: 0.02% BSA, 0.2% acetic acid
Method: as §1, §2

[13] = Candida albicans clinical yeast strain 1
[14] = Candida albicans clinical yeast strain 2
[15] = Candida albicans clinical yeast strain 3
[16] = Candida albicans clinical yeast strain 4
[17] = Candida albicans clinical yeast strain 5
[18] = C. glabrata clinical yeast strain 1
[19] = C. glabrata clinical yeast strain 2
[20] = C. glabrata clinical yeast strain 3
[21] = C. glabrata clinical yeast strain 4
[22] = C. parapsilosis clinical yeast strain 1
[23] = C. parapsilosis clinical yeast strain 2
[24] = C. parapsilosis clinical yeast strain 3
[25] = C. parapsilosis clinical yeast strain 4
[26] = Serratia marcescens strain 1, Muller Hinton broth-cation adjusted
[27] = Serratia marcescens strain 2, Muller Hinton broth-cation adjusted
[28] = Serratia marcescens strain 3, Muller Hinton broth-cation adjusted
[29] = Serratia marcescens strain 4, Muller Hinton broth-cation adjusted
[30] = Serratia marcescens strain 5, Muller Hinton broth-cation adjusted
[31] = Staphylococcus aureus strain 1, Muller Hinton broth-cation adjusted
[32] = Staphylococcus aureus strain 2, Muller Hinton broth-cation adjusted
[33] = Staphylococcus aureus strain 3, Muller Hinton broth-cation adjusted
[34] = Staphylococcus aureus strain 4, Muller Hinton broth-cation adjusted
[35] = Staphylococcus aureus strain 5, Muller Hinton broth-cation adjusted
[36] = Proteus mirabilis strain 1, Muller Hinton broth-cation adjusted
[37] = Proteus mirabilis strain 2, Muller Hinton broth-cation adjusted
[38] = Proteus mirabilis strain 3, Muller Hinton broth-cation adjusted
[39] = Proteus mirabilis strain 4, Muller Hinton broth-cation adjusted
[40] = Proteus mirabilis strain 5, Muller Hinton broth-cation adjusted
[41] = Klebsiella pneumoniae strain 1, Muller Hinton broth-cation adjusted
[42] = Klebsiella pneumoniae strain 2, Muller Hinton broth-cation adjusted
[43] = Klebsiella pneumoniae strain 3, Muller Hinton broth-cation adjusted
[44] = Klebsiella pneumoniae strain 4, Muller Hinton broth-cation adjusted
[45] = Klebsiella pneumoniae strain 5, Muller Hinton broth-cation adjusted
[46] = Streptococcus pneumoniae strain 1, Muller Hinton broth-cation adjusted
[47] = Streptococcus pneumoniae strain 2, Muller Hinton broth-cation adjusted
[48] = Streptococcus pneumoniae strain 3, Muller Hinton broth-cation adjusted
[49] = Streptococcus pneumoniae strain 4, Muller Hinton broth-cation adjusted
[50] = Streptococcus pneumoniae strain 5, Muller Hinton broth-cation adjusted
[51] = Enterobacter cloacae strain 1, Muller Hinton broth-cation adjusted
[52] = Enterobacter cloacae strain 2, Muller Hinton broth-cation adjusted
[53] = Enterobacter cloacae strain 3, Muller Hinton broth-cation adjusted
[54] = Enterobacter cloacae strain 4, Muller Hinton broth-cation adjusted
[55] = Enterobacter cloacae strain 5, Muller Hinton broth-cation adjusted
[56] = Pseudomonas aeruginosa strain 1, Muller Hinton broth-cation adjusted
[57] = Pseudomonas aeruginosa strain 2, Muller Hinton broth-cation adjusted
[58] = Pseudomonas aeruginosa strain 3, Muller Hinton broth-cation adjusted
[59] = Pseudomonas aeruginosa strain 4, Muller Hinton broth-cation adjusted
[60] = Pseudomonas aeruginosa strain 5, Muller Hinton broth-cation adjusted

`CC(C)C[C@@H](NC(=O)[C@@H](Cc1c[nH]c2ccccc12)NC(=O)[C@@H](Cc1ccccc1)NC(=O)[C@@H](Cc1c[nH]c2ccccc12)NC(=O)[C@@H](CCCCN)NC(=O)[C@@H](CCCNC(=N)N)NC(=O)[C@H](N)Cc1c[nH]c2ccccc12)C(=O)N[C@H](Cc1ccccc1)C(=O)N[C@H](CCCCN)C(=O)N[C@H](CCCCN)C(=O)N[C@H](CCCNC(=N)N)C(=O)O` [Chain309D] (H-[dW][dR][dK][dW][dF][dW][dL][dF][dK][dK][dR]-OH) gave a Minimum inhibitory concentration [1, 13] of 32, a Minimum inhibitory concentration [1, 14] of 32 and a Minimum inhibitory concentration [1, 15] of 16. It also gave a Minimum inhibitory concentration [1, 16] of 16, a Minimum inhibitory concentration [1, 17] of 32 and a Minimum inhibitory concentration [2, 18] of 32. It also gave a Minimum inhibitory concentration [2, 19] of 64, a Minimum inhibitory concentration [2, 20] of 4 and a Minimum inhibitory concentration [2, 21] of 128. It also gave a Minimum inhibitory concentration [3, 22] of 64, a Minimum inhibitory concentration [3, 23] of 64 and a Minimum inhibitory concentration [3, 24] of 32. It also gave a Minimum inhibitory concentration [3, 25] of 16, a Minimum inhibitory concentration [4] of 8 and a Minimum inhibitory concentration [5, 26] of over 128. For the same compound, the Minimum inhibitory concentration [5, 27] was over 128, the Minimum inhibitory concentration [5, 28] was over 128 and the Minimum inhibitory concentration [5, 29] was over 128. The Minimum inhibitory concentration [5, 30] was over 128, the Minimum inhibitory concentration [6, 31] was 8 and the Minimum inhibitory concentration [6, 32] was 16. The Minimum inhibitory concentration [6, 33] was 8, the Minimum inhibitory concentration [6, 34] was 8 and the Minimum inhibitory concentration [6, 35] was 8. It also gave a Minimum inhibitory concentration [7, 36] of over 128, a Minimum inhibitory concentration [7, 37] of over 128 and a Minimum inhibitory concentration [7, 38] of over 128. It also gave a Minimum inhibitory concentration [7, 39] of over 128, a Minimum inhibitory concentration [7, 40] of over 128 and a Minimum inhibitory concentration ([8]; Escherichia coli strain 1) of 0.5. The Minimum inhibitory concentration ([8]; Escherichia coli strain 2) was 32, the Minimum inhibitory concentration ([8]; Escherichia coli strain 3) was 16 and the Minimum inhibitory concentration ([8]; Escherichia coli strain 4) was 32. For the same compound, the Minimum inhibitory concentration ([8]; Escherichia coli strain 5) was 16, the Minimum inhibitory concentration [9, 41] was 128 and the Minimum inhibitory concentration [9, 42] was 32. The Minimum inhibitory concentration [9, 43] was over 128, the Minimum inhibitory concentration [9, 44] was 32 and the Minimum inhibitory concentration [9, 45] was 128. The Minimum inhibitory concentration [10, 46] was 64, the Minimum inhibitory concentration [10, 47] was 64 and the Minimum inhibitory concentration [10, 48] was 64. For the same compound, the Minimum inhibitory concentration [10, 49] was 64, the Minimum inhibitory concentration [10, 50] was 64 and the Minimum inhibitory concentration [11, 51] was over 128. The Minimum inhibitory concentration [11, 52] was 128, the Minimum inhibitory concentration [11, 53] was 64 and the Minimum inhibitory concentration [11, 54] was 64. The Minimum inhibitory concentration [11, 55] was 32, the Minimum inhibitory concentration [12, 56] was 16 and the Minimum inhibitory concentration [12, 57] was 32. It also gave a Minimum inhibitory concentration [12, 58] of 16, a Minimum inhibitory concentration [12, 59] of 32 and a Minimum inhibitory concentration [12, 60] of 8.
In the case of `CC(C)C[C@@H](NC(=O)[C@H](N)CCCCN)C(=O)N[C@H](CCCCN)C(=O)N[C@H](Cc1c[nH]c2ccccc12)C(=O)N[C@H](Cc1ccccc1)C(=O)N[C@H](Cc1c[nH]c2ccccc12)C(=O)N[C@H](CC(C)C)C(=O)N[C@H](Cc1ccccc1)C(=O)N[C@H](CCCCN)C(=O)N[C@H](CCCCN)C(=O)N[C@H](CCCNC(=N)N)C(=O)O` [Chain311D] (H-[dK][dL][dK][dW][dF][dW][dL][dF][dK][dK][dR]-OH), the Minimum inhibitory concentration [1, 13] is reported as 8, the Minimum inhibitory concentration [1, 14] is reported as 8 and the Minimum inhibitory concentration [1, 15] is reported as 8. For the same compound, the Minimum inhibitory concentration [1, 16] was 16, the Minimum inhibitory concentration [1, 17] was 16 and the Minimum inhibitory concentration [2, 18] was 16. For the same compound, the Minimum inhibitory concentration [2, 19] was 16, the Minimum inhibitory concentration [2, 20] was 8 and the Minimum inhibitory concentration [2, 21] was 64. It also gave a Minimum inhibitory concentration [3, 22] of 16, a Minimum inhibitory concentration [3, 23] of 8 and a Minimum inhibitory concentration [3, 24] of 8. The Minimum inhibitory concentration [3, 25] was 8, the Minimum inhibitory concentration [4] was 4 and the Minimum inhibitory concentration [5, 26] was over 128. It also gave a Minimum inhibitory concentration [5, 27] of over 128, a Minimum inhibitory concentration [5, 28] of over 128 and a Minimum inhibitory concentration [5, 29] of over 128. For the same compound, the Minimum inhibitory concentration [5, 30] was over 128, the Minimum inhibitory concentration [6, 31] was 1 and the Minimum inhibitory concentration [6, 32] was 1. It also gave a Minimum inhibitory concentration [6, 33] of 1, a Minimum inhibitory concentration [6, 34] of 1 and a Minimum inhibitory concentration [6, 35] of 1. The Minimum inhibitory concentration [7, 36] was over 128, the Minimum inhibitory concentration [7, 37] was 128 and the Minimum inhibitory concentration [7, 38] was 128. For the same compound, the Minimum inhibitory concentration [7, 39] was over 128, the Minimum inhibitory concentration [7, 40] was over 128 and the Minimum inhibitory concentration ([8]; Escherichia coli strain 1) was 2. For the same compound, the Minimum inhibitory concentration ([8]; Escherichia coli strain 2) was 2, the Minimum inhibitory concentration ([8]; Escherichia coli strain 3) was 1 and the Minimum inhibitory concentration ([8]; Escherichia coli strain 4) was 0.5. It also gave a Minimum inhibitory concentration ([8]; Escherichia coli strain 5) of 1, a Minimum inhibitory concentration [9, 41] of 8 and a Minimum inhibitory concentration [9, 42] of 8. For the same compound, the Minimum inhibitory concentration [9, 43] was 4, the Minimum inhibitory concentration [9, 44] was 8 and the Minimum inhibitory concentration [9, 45] was 4. It also gave a Minimum inhibitory concentration [10, 46] of 16, a Minimum inhibitory concentration [10, 47] of 8 and a Minimum inhibitory concentration [10, 48] of 16. The Minimum inhibitory concentration [10, 49] was 4, the Minimum inhibitory concentration [10, 50] was 8 and the Minimum inhibitory concentration [11, 51] was 4. It also gave a Minimum inhibitory concentration [11, 52] of 4, a Minimum inhibitory concentration [11, 53] of 4 and a Minimum inhibitory concentration [11, 54] of 4. The Minimum inhibitory concentration [11, 55] was 2, the Minimum inhibitory concentration [12, 56] was 16 and the Minimum inhibitory concentration [12, 57] was 8. The Minimum inhibitory concentration [12, 58] was 16, the Minimum inhibitory concentration [12, 59] was 8 and the Minimum inhibitory concentration [12, 60] was 4.
